In ChEMBL document CHEMBL2440112, “Structure-activity relationships of the aromatic site in novel anticonvulsant pyrrolo[1,2-a]pyrazine derivatives” (Bioorg Med Chem Lett, 2013):
Calls of active or inactive are those of the source. No cut-off for these calls is given here.

Legend:
Rattus norvegicus [1] = test: Anticonvulsant activity in po dosed albino Sprague-Dawley rat assessed as protection against maximal electroshock-induced seizures after […] to 4 hrs; assay type: functional, organism-based
Mus musculus [2] = test: Neurotoxicity in albino mouse assessed as minimal motor impairment at 100 mg/kg, ip after 4 hrs by rotorod test; assay type: toxicity, organism-based; design: dose 100 mg/kg, route intraperitoneal; details: in vivo
Mus musculus [3] = test: Neurotoxicity in albino mouse assessed as minimal motor impairment at 100 mg/kg, ip after 1 hr by rotorod test; assay type: toxicity, organism-based; design: dose 100 mg/kg, route intraperitoneal; details: in vivo
Mus musculus [4] = test: Neurotoxicity in albino mouse assessed as minimal motor impairment at 100 mg/kg, ip after 0.5 hrs by rotorod test; assay type: toxicity, organism-based; design: dose 100 mg/kg, route intraperitoneal; details: in vivo
Mus musculus [5] = test: Neurotoxicity in albino mouse assessed as minimal motor impairment at 100 mg/kg, ip after 0.25 hrs by rotorod test; assay type: toxicity, organism-based; design: dose 100 mg/kg, route intraperitoneal; details: in vivo
Mus musculus [6] = test: Anticonvulsant activity in albino mouse assessed as protection against subcutaneous metrazole-induced seizures at 100 mg/kg, ip after 4 hrs; assay type: functional, organism-based; design: dose 100 mg/kg
Mus musculus [7] = test: Toxicity in subcutaneous metrazole treated albino mouse assessed as myoclonic jerks at 100 mg/kg, ip after 0.5 hrs; assay type: organism-based; design: dose 100 mg/kg; details: in vivo, sc
Mus musculus [8] = test: Anticonvulsant activity in albino mouse assessed as protection against subcutaneous metrazole-induced seizures at 100 mg/kg, ip after 0.5 hrs; assay type: functional, organism-based; design: dose 100 mg/kg
Mus musculus [9] = test: Anticonvulsant activity in albino mouse assessed as protection against maximal electroshock-induced seizures at 100 mg/kg, ip after 4 hrs; assay type: functional, organism-based; design: dose 100 mg/kg
Mus musculus [10] = test: Anticonvulsant activity in albino mouse assessed as protection against maximal electroshock-induced seizures at 100 mg/kg, ip after 1 hr; assay type: functional, organism-based; design: dose 100 mg/kg
Mus musculus [11] = test: Anticonvulsant activity in albino mouse assessed as protection against maximal electroshock-induced seizures at 100 mg/kg, ip after 0.5 hrs; assay type: functional, organism-based; design: dose 100 mg/kg
Mus musculus [12] = test: Anticonvulsant activity in albino mouse assessed as protection against maximal electroshock-induced seizures at 100 mg/kg, ip after 0.25 hrs; assay type: functional, organism-based; design: dose 100 mg/kg
Mus musculus [13] = test: Anticonvulsant activity in ip dosed albino mouse assessed as time of peak effect for protection against 6 Hz psychomotor seizure by minimal clonic seizure test; assay type: functional
[14] = Neurotoxicity in ip dosed albino mouse minimal clonic seizure model assessed as minimal motor impairment by rotorod test; assay type: toxicity, organism-based; details: in vivo
Mus musculus [15] = test: Neurotoxicity in albino mouse minimal clonic seizure model assessed as minimal motor impairment at 100 mg/kg, ip after 4 hrs by rotorod test; assay type: toxicity, organism-based; design: dose 100 mg/kg, route intraperitoneal; details: in vivo
Mus musculus [16] = test: Neurotoxicity in albino mouse minimal clonic seizure model assessed as minimal motor impairment at 100 mg/kg, ip after 2 hrs by rotorod test; assay type: toxicity, organism-based; design: dose 100 mg/kg, route intraperitoneal; details: in vivo
Mus musculus [17] = test: Neurotoxicity in albino mouse minimal clonic seizure model assessed as minimal motor impairment at 100 mg/kg, ip after 1 hr by rotorod test; assay type: toxicity, organism-based; design: dose 100 mg/kg, route intraperitoneal; details: in vivo
Mus musculus [18] = test: Neurotoxicity in albino mouse minimal clonic seizure model assessed as minimal motor impairment at 100 mg/kg, ip after 0.5 hrs by rotorod test; assay type: toxicity, organism-based; design: dose 100 mg/kg, route intraperitoneal; details: in vivo
Mus musculus [19] = test: Neurotoxicity in albino mouse minimal clonic seizure model assessed as minimal motor impairment at 100 mg/kg, ip after 0.25 hrs by rotorod test; assay type: toxicity, organism-based; design: dose 100 mg/kg, route intraperitoneal; details: in vivo
Mus musculus [20] = test: Anticonvulsant activity in albino mouse assessed as protection against 6 Hz psychomotor seizure at 100 mg/kg, ip after 4 hrs by minimal clonic seizure test; assay type: functional, organism-based; design: dose 100 mg/kg
Mus musculus [21] = test: Anticonvulsant activity in albino mouse assessed as protection against 6 Hz psychomotor seizure at 100 mg/kg, ip after 2 hrs by minimal clonic seizure test; assay type: functional, organism-based; design: dose 100 mg/kg
Mus musculus [22] = test: Anticonvulsant activity in albino mouse assessed as protection against 6 Hz psychomotor seizure at 100 mg/kg, ip after 1 hr by minimal clonic seizure test; assay type: functional, organism-based; design: dose 100 mg/kg
Mus musculus [23] = test: Anticonvulsant activity in albino mouse assessed as protection against 6 Hz psychomotor seizure at 100 mg/kg, ip after 0.5 hrs by minimal clonic seizure test; assay type: functional, organism-based; design: dose 100 mg/kg
Mus musculus [24] = test: Anticonvulsant activity in albino mouse assessed as protection against 6 Hz psychomotor seizure at 100 mg/kg, ip after 0.25 hrs by minimal clonic seizure test; assay type: functional, organism-based; design: dose 100 mg/kg
Rattus norvegicus [25] = test: Neurotoxicity in albino Sprague-Dawley rat assessed as minimal motor impairment at 30 mg/kg, ip after 4 hrs by rotorod test; assay type: toxicity, organism-based; design: dose 30 mg/kg, route intraperitoneal; details: in vivo
Rattus norvegicus [26] = test: Neurotoxicity in albino Sprague-Dawley rat assessed as minimal motor impairment at 30 mg/kg, ip after 2 hrs by rotorod test; assay type: toxicity, organism-based; design: dose 30 mg/kg, route intraperitoneal; details: in vivo
Rattus norvegicus [27] = test: Neurotoxicity in albino Sprague-Dawley rat assessed as minimal motor impairment at 30 mg/kg, ip after 1 hr by rotorod test; assay type: toxicity, organism-based; design: dose 30 mg/kg, route intraperitoneal; details: in vivo
Rattus norvegicus [28] = test: Neurotoxicity in albino Sprague-Dawley rat assessed as minimal motor impairment at 30 mg/kg, ip after 0.5 hrs by rotorod test; assay type: toxicity, organism-based; design: dose 30 mg/kg, route intraperitoneal; details: in vivo
Rattus norvegicus [29] = test: Neurotoxicity in albino Sprague-Dawley rat assessed as minimal motor impairment at 30 mg/kg, ip after 0.25 hrs by rotorod test; assay type: toxicity, organism-based; design: dose 30 mg/kg, route intraperitoneal; details: in vivo
Rattus norvegicus [30] = test: Anticonvulsant activity in albino Sprague-Dawley rat assessed as protection against maximal electroshock-induced seizures at 30 mg/kg, ip after 4 hrs; assay type: functional, organism-based; design: dose 30 mg/kg
Rattus norvegicus [31] = test: Anticonvulsant activity in albino Sprague-Dawley rat assessed as protection against maximal electroshock-induced seizures at 30 mg/kg, ip after 2 hrs; assay type: functional, organism-based; design: dose 30 mg/kg
Rattus norvegicus [32] = test: Anticonvulsant activity in albino Sprague-Dawley rat assessed as protection against maximal electroshock-induced seizures at 30 mg/kg, ip after 1 hr; assay type: functional, organism-based; design: dose 30 mg/kg
Rattus norvegicus [33] = test: Anticonvulsant activity in albino Sprague-Dawley rat assessed as protection against maximal electroshock-induced seizures at 30 mg/kg, ip after 0.5 hrs; assay type: functional, organism-based; design: dose 30 mg/kg
Rattus norvegicus [34] = test: Anticonvulsant activity in albino Sprague-Dawley rat assessed as protection against maximal electroshock-induced seizures at 30 mg/kg, ip after 0.25 hrs; assay type: functional, organism-based; design: dose 30 mg/kg
Mus musculus [35] = test: Anticonvulsant activity in albino mouse assessed as protection against subcutaneous metrazole-induced seizures at 100 mg/kg, ip after 1 hr; assay type: functional, organism-based; design: dose 100 mg/kg
Mus musculus [36] = test: Anticonvulsant activity in albino mouse assessed as protection against subcutaneous metrazole-induced seizures at 100 mg/kg, ip after 0.25 hrs; assay type: functional, organism-based; design: dose 100 mg/kg
Rattus norvegicus [37] = test: Toxicity in albino Sprague-Dawley rat pilocarpine-induced status prevention model assessed as weight change in non-protected animal at 200 mg/kg, ip administered 30 mins before pilocarpine challenge; assay type: organism-based; design: dose 200 mg/kg, route intraperitoneal; details: in vivo, 0.5 h
Rattus norvegicus [38] = test: Toxicity in albino Sprague-Dawley rat pilocarpine-induced status prevention model assessed as weight change in non-protected animal at 200 mg/kg, ip followed by immediately administered pilocarpine; assay type: organism-based; design: dose 200 mg/kg, route intraperitoneal; details: in vivo
Rattus norvegicus [39] = test: Toxicity in albino Sprague-Dawley rat pilocarpine-induced status prevention model assessed as weight change in protected animal at 200 mg/kg, ip administered 30 mins before pilocarpine challenge; assay type: organism-based; design: dose 200 mg/kg, route intraperitoneal; details: in vivo, 0.5 h
Rattus norvegicus [40] = test: Toxicity in albino Sprague-Dawley rat pilocarpine-induced status prevention model assessed as weight change in protected animal at 200 mg/kg, ip followed by immediately administered pilocarpine; assay type: organism-based; design: dose 200 mg/kg, route intraperitoneal; details: in vivo
Mus musculus [41] = test: Anticonvulsant activity in ip dosed albino mouse assessed as protection against 6 Hz psychomotor seizure by minimal clonic seizure test; assay type: functional
Mus musculus [42] = species on record: Mus musculus; test: Protective index, ratio of TD50 for albino mouse minimal clonic seizure model to ED50 for albino mouse assessed as protection against 6 Hz psychomotor seizure; assay type: functional
Rattus norvegicus [43] = test: Anticonvulsant activity in albino Sprague-Dawley rat pilocarpine-induced status prevention model by measuring post-first stage 3 seizure at 200 mg/kg, ip followed by immediately administered pilocarpine; assay type: functional, organism-based; design: dose 200 mg/kg
Rattus norvegicus [44] = test: Anticonvulsant activity in albino Sprague-Dawley rat pilocarpine-induced status prevention model by measuring post-first stage 3 seizure at 200 mg/kg, ip administered 30 mins before pilocarpine challenge; assay type: functional, organism-based; design: dose 200 mg/kg

SMILES | Activity (Rattus norvegicus [1]) | Activity (Mus musculus [2]) | Activity (Mus musculus [3]) | Activity (Mus musculus [4]) | Activity (Mus musculus [5]) | Activity (Mus musculus [6]) | Activity (Mus musculus [8]) | Activity (Mus musculus [9]) | Activity (Mus musculus [10]) | Activity (Mus musculus [11]) | Activity (Mus musculus [12]) | Time (Mus musculus [13]) [h] | TD50 [14] [mg/kg] | Activity (Mus musculus [20]) | Activity (Mus musculus [21]) | Activity (Mus musculus [22]) | Activity (Mus musculus [23]) | Activity (Mus musculus [24]) | Activity (Rattus norvegicus [25]) | Activity (Rattus norvegicus [26]) | further results
O=C1NC(=O)[C@@H]2CCCN2[C@H]1c1ccc(Cl)c(Cl)c1 | inactive | Non-toxic | Non-toxic | Non-toxic | Non-toxic | inactive | Active | inactive | inactive | inactive | inactive | – | – | – | – | – | – | – | – | – | Activity (Mus musculus [7]): Toxic
CCC1(C)CC(=O)NC1=O (centres undefined) [ETHOSUXIMIDE] | – | – | – | – | – | – | – | – | – | – | – | 0.25 | – | – | – | – | – | – | – | – | –
CC[C@@H](C(N)=O)N1CCCC1=O | – | – | – | – | – | – | – | – | – | – | – | 1 | > 500 | – | – | – | – | – | – | – | –
Cc1cccc([C@H]2C(=O)NC(=O)[C@@H]3CCCN23)c1 | inactive | Non-toxic | Non-toxic | Non-toxic | Toxic | inactive | inactive | inactive | inactive | Active | Active | – | – | inactive | inactive | inactive | Active | Active | Non-toxic | Non-toxic | Activity (Mus musculus [15]): Non-toxic; Activity (Mus musculus [16]): Non-toxic; Activity (Mus musculus [17]): Non-toxic; Activity (Mus musculus [18]): Non-toxic; Activity (Mus musculus [19]): Toxic; Activity (Rattus norvegicus [27]): Non-toxic; Activity (Rattus norvegicus [28]): Non-toxic; Activity (Rattus norvegicus [29]): Non-toxic; Activity (Rattus norvegicus [30]): inactive; Activity (Rattus norvegicus [31]): inactive; Activity (Rattus norvegicus [32]): inactive; Activity (Rattus norvegicus [33]): inactive; Activity (Rattus norvegicus [34]): inactive; Activity (Mus musculus [35]): inactive; Activity (Mus musculus [36]): Active
O=C1NC(=O)[C@@H]2CCCN2[C@H]1c1ccc(Cl)cc1 | inactive | Non-toxic | Non-toxic | Non-toxic | Non-toxic | inactive | inactive | inactive | inactive | inactive | Active | 0.25 | 212 | inactive | Active | Active | Active | Active | Non-toxic | Non-toxic | Activity (Rattus norvegicus [37]): -31.4 g; Activity (Rattus norvegicus [38]): 15 g; Activity (Rattus norvegicus [39]): -30 g; Activity (Rattus norvegicus [40]): -3.6 g; ED50 (Mus musculus [41]): 32.2 mg/kg; Activity (Rattus norvegicus [27]): Non-toxic; Activity (Rattus norvegicus [28]): Non-toxic; Activity (Rattus norvegicus [29]): Non-toxic; Ratio TD50/ED50 (Mus musculus [42]): 6.6; Activity (Rattus norvegicus [43]): Active; Activity (Rattus norvegicus [44]): inactive; Activity (Rattus norvegicus [30]): inactive; Activity (Rattus norvegicus [31]): inactive; Activity (Rattus norvegicus [32]): inactive; Activity (Rattus norvegicus [33]): Active; Activity (Rattus norvegicus [34]): Active
